In brackets after ≈: the same amount, converted by molar mass. Like-named read-outs stand apart in the source and are kept apart here. Marks after values point to notes of the source that are not given here.
What was measured:
RANKL = target: T1, RANKL (Homo sapiens, UniProt O14788); experiment: Fluorescence-based binding affinity assay, RANKL
T1 sequence (O14788 143-317): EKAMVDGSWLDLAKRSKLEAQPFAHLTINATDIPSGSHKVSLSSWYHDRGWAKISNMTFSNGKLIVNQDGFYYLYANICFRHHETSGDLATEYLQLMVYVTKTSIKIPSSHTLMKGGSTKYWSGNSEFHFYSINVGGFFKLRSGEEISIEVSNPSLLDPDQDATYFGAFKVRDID
Method: For use in the binding assays, recombinant TNF and RANKL were expressed and purified as previously described.[84–86] Fluorescence intensity was measure with a Synergy H1 Multi-Mode Reader (BioTek) in 96-well microplates (black) at 25°C. […] During preparation of the solutions the buffer was firstly added to all wells followed by the ligand solution and finally the protein was added. All solutions were mixed by pipetting and equilibrated for 1h at 25°C before measurement. […] Experiments were performed for TNF in 10 mM citrate-phosphate (pH 6.5) and for RANKL in 25 mM Tris–HCl buffer, 100 mM NaCl (pH 7.5); both buffers were supplemented with PEG3350 at the concentrations indicated in the respective figures. Kd values were calculated as mean ± SEM from three independent experiments.
Differences in fluorescence intensity between the protein/ligand complex and free protein (or free ligand) were analysed as previously described in [Papaneophytou et al. (2013) ACS Med Chem Lett. 4: 137-141] (Eq. S6) in order to determine the dissociation constant (Kd) of the various protein-ligand systems.
In Eq. (S6) Fobs is the observed fluorescence intensity; FBG is the fluorescence background signal; MFLF [picture] and PF are the molar fluorescence and concentration of free protein, respectively; FR is the fluorescence ratio of bound protein (or bound ligand in the case of a fluorescence ligand); LT and PT are the total concentrations of ligand and protein, respectively. A detailed analysis of the development of the fluorescence ligand-binding assay is given in [Papaneophytou et al. (2013) ACS Med Chem Lett. 4: 137-141].

[1] = Solubility with PEG3350 as co-solvent; format: physicochemical; conditions: PEG3350 2.5% v/v
Description: PEG3350 was used as co-solvent in order to enhance inhibitors solubility and thus eliminate the possibility of aggregates formation. | column: Solubility (μM)

[2] = PEG3350 0% v/v; cited from earlier work
L929 cells = test system: L929 cells; parameters: method as in PMID 25160057; conditions: compound alone, read-out: L929 LC50; cited from earlier work
[3] = target: the molecule itself; experiment: cross-linking; 100 ng recombinant human TNF or RANKL, with or without inhibitors (30 min, room temperature), cross-linked with 4.8 mM BS3 for 30 min at room temperature; SDS-PAGE and western blot

Molecule: Cc1cc2occ(CN(C)CCN(C)Cc3cn(-c4cccc(C(F)(F)F)c4)c4ccccc34)c(=O)c2cc1C [SPD304, InChI = 1S/C32H32F3N3O2/c1-21-14-28-30(15-22(21)2)40-20-24(31(28)39)18-37(4)13-12-36(3)17-23-19-38(29-11-6-5-10-27(23)29)26-9-7-8-25(16–26)32(33,34)35/h5-11,14–16,19-20H,12–13,17-18H2,1-4H3, reference compound]
- Kd (RANKL; RANKL 0.5 μM, PEG3350 2.5%, 25 mM Tri-HCl, 100 mM NaCl pH 7.5, read-out: Binding affinity (Kd), RANKL): 14.2 ± 0.68 µM
- Kd (RANKL; RANKL 0.5 μM, PEG3350 5%, 25 mM Tri-HCl, 100 mM NaCl pH 7.5, read-out: Binding affinity (Kd), RANKL): 13.8 ± 0.73 µM
- Kd (RANKL; fluorescence assay, 25°C, 25 mM Tris-HCl, 100 mM NaCl, pH 7.5, 5% PEG3350, read-out: Kd (RANKL complexes)): 13.8 ± 0.7 µM
- solubility [1]: 71 µM (≈ 38.9 µg/mL)
- solubility [2]: 10^b μM
- CC50 (L929 cells): 7.5 ± 0.2 µM

B1: recombinant human RANKL (Receptor activator of nuclear factor kappa-B ligand) (ligand, UniProt O14788 140-317, looked up)
chain: IRAEKAMVDGSWLDLAKRSKLEAQPFAHLTINATDIPSGSHKVSLSSWYHDRGWAKISNMTFSNGKLIVNQDGFYYLYANICFRHHETSGDLATEYLQLMVYVTKTSIKIPSSHTLMKGGSTKYWSGNSEFHFYSINVGGFFKLRSGEEISIEVSNPSLLDPDQDATYFGAFKVRDID
notes: source: bought: Peprotech
- stoichiometry N [3]: 3

From publication PMC5398486, “Cheminformatics-aided discovery of small-molecule Protein-Protein Interaction (PPI) dual inhibitors of Tumor Necrosis Factor (TNF) and Receptor Activator of NF-κB Ligand (RANKL)” (PLoS Computational Biology, 2017)
